Assay results published in paper PMC9964319, “Half-Sandwich Rhodium Complexes with Releasable N-Donor Monodentate Ligands: Solution Chemical Properties and the Possibility for Acidosis Activation” (Pharmaceutics, 2023).
pIC50: −log10 of the molar value. Read-outs that look alike come from different tables or passages of the source.

How the values were obtained:
[1] = test system: Colo205 human colon adenocarcinoma cell line (doxorubicin-sensitive); test: MTT assay, cytotoxicity at pH 6 and 7; assay type: cell-based; settings: Colo205, 72 h incubation, read-out: IC50
Experimental: (§1) All cell culture reagents were obtained from Sigma-Aldrich (Merck KGaA, Darmstadt, Germany) and plasticware from Sarstedt (Nümbrecht, Germany). Human colonic adenocarcinoma cell lines Colo205 (catalog number: ATCC-CCL-222) and its doxorubicin-resistant counterpart Colo320 (catalog number: ATCC-CCL-220.1) were purchased from LGC Promochem (Teddington, UK). The cells were cultured in RPMI 1640 medium supplemented with 10% heat-inactivated fetal bovine serum, 2 mM L-glutamine, 1 mM sodium pyruvate, and 100 mM HEPES buffer, adjusting the pH to 6.0 or 7.0. The cells were incubated at 37 °C in a 5% CO2–95% air atmosphere. The semiadherent human colon cancer cells were detached with Trypsin-Versene solution for 5 min at 37 °C.
(§2) The solutions were freshly prepared prior to measurements (see Section 2.1). […] Firstly, these samples were diluted in complete culture medium; then, two-fold serial dilutions of the compounds were prepared in 100 μL of RPMI 1640, horizontally. The semiadherent colonic adenocarcinoma cells were treated with Trypsin-Versene solution. They were adjusted to a density of 1 × 10^4 cells in 100 μL of RPMI 1640 medium and were added to each well, with the exception of the medium control wells. The final volume of the wells containing compounds and cells was 200 μL. Samples were triplicated. The pH of the medium was adjusted to 6.0 or 7.0.
(§3) The culture plates were incubated at 37 °C for 72 h; at the end of the incubation period, 20 μL of MTT solution (from a stock solution of 5 mg/mL) was added to each well. After incubation at 37 °C for 4 h, 100 μL of SDS solution (10% in 0.01 M HCI) was added to each well, and the plates were further incubated at 37 °C overnight. Cell growth was determined by measuring the optical density (OD) at 540/630 nm with a Multiscan EX ELISA reader (Thermo Labsystems, Cheshire, WA, USA). […] Curves were fitted using GraphPad Prism software (2022, version 9.4.1, Graphpad Software (LLC) d.b.a Dotmatics, San Diego, CA, USA) using the sigmoidal dose–response model (comparing variable and fixed slopes).
(§4) The pH-dependent solution speciation of the selected mixed-ligand complexes is an important feature in the hypothesized mechanism of action, and the modeling of acidosis is necessary for the in vitro anticancer assays. In order to find out the cytotoxicity difference based on the pH of the medium, cytotoxic activity was determined at pH 6 and 7 by MTT assay in two human colon adenocarcinoma cell lines (doxorubicin-sensitive Colo205 and doxorubicin-resistant Colo320). […] The mixed-ligand complexes were prepared prior to the measurements, as was already described in Section 2.1. With this method, the effect of the different counter ions could be avoided, and a more adequate comparison of the mixed-ligand complexes could be conducted.

[2] = test system: Colo320 human colon adenocarcinoma cell line (doxorubicin-resistant); test: MTT assay, cytotoxicity at pH 6 and 7; assay type: cell-based; settings: Colo320, 72 h incubation, read-out: IC50
Experimental: as §1, §2, §3, §4

[3] = test system: E. coli ATCC 25922 (sensitive); test: Antibacterial assay, MIC in 96-well plates at different pH; assay type: cell-based
From the text: (§5) The antibacterial effect was studied in two Gram-positive and in two Gram-negative strains. The Gram-positive S. aureus ATCC 25923 (ATCC, Manassas, VA, USA) is a methicillin-susceptible reference bacterial strain, while S. aureus 272123 is a clinical isolate and resistant to methicillin and ofloxacin (MRSA), which was given by Prof. Dr. Leonard Amaral (Institute of Hygiene and Tropical Medicine, Lisbon, Portugal). The Gram-negative strains were E. coli ATCC 25922 (ATCC, Manassas, VA, USA), which is sensitive to antibiotics, and E. coli 32313 (provided by the Institute of Clinical Microbiology, University of Szeged, Hungary), which is resistant to different antibiotics (trimethoprim/sulfamethoxazole, gentamicin, ciprofloxacin, and norfloxacin).
(§6) The minimum inhibitory concentrations (MICs) of the compounds were determined in 96-well plates based on the Clinical and Laboratory Standard Institute guidelines. The compounds were diluted in 100 μL of Mueller Hinton broth. Then, an overnight bacterial culture diluted 10,000 times in 100 μL of medium was added to each well, with the exception of the medium control wells. For each strain and each tested compound, four pH values were set (5, 6, 7, and 8). Each sample was triplicated.

[4] = test system: E. coli 32313 (resistant); test: as above; assay type: cell-based
From the text: as §5, §6

[5] = test system: S. aureus ATCC 25923 (methicillin-susceptible); test: as above; assay type: cell-based
From the text: as §5, §6

[6] = test system: S. aureus 272123 (MRSA); test: as above; assay type: cell-based
From the text: as §5, §6

[7] = Formation constants of mixed-ligand half-sandwich complexes (UV-vis and 1H NMR); assay type: physicochemical; settings: for Formation constant logK of mixed-ligand complex: aqua complex + monodentate ligand, I = 0.10 M (KCl), t = 25.0 °C, UV-vis and 1H NMR; for formation of the mixed-ligand complex: under the applied conditions, 1H NMR, limit of detection 5%
Experimental: NMR spectroscopic studies were carried out on a Bruker Avance III HD Ascend 500 Plus instrument. For the aqueous samples, ^1H NMR spectra were recorded with the WATERGATE water suppression pulse scheme using DSS internal standard. The highest peak of DSS was 0.00 ppm. The measurement was very similar to the UV-vis measurement since the complex–to–monodentate ligand ratio was also between 0–10 equivalents; the spectra were recorded after the given waiting time. […] This technique was useful in those cases where no spectral change was visible during the UV-vis titrations.
In both measurement methods, the formation constant (K) was obtained using the computer program PSEQUAD [38].
It is worthwhile to mention that the liberation of the bidentate ligand was not detected even at higher monodentate ligand excess (~10), which means that the disruption of the bond between the bidentate ligand and the metal center is not feasible under these conditions. The calculated formation constants are compared in Figure 5 and are collected in Table S2. The formation of the mixed-ligand complexes was not detected in three cases under the applied conditions, namely [Ru(p-cym)(en)(mim)]^2+, [Ru(p-cym)(phen)(mim)]^2+, and [Ru(p-cym)(en)(Py)]^2+. For these complexes, only a higher limit of the formation constant could be given, assuming that a maximum of 5% of the complex would form (limit of detection) under the conditions used for ^1H NMR spectroscopy. Based on Figure 5, the following trends are observed in the formation constants: (i) [RhCp*(en)(H2O)]^2+ and [RhCp*(phen)(H2O)]^2+ have a stronger monodentate ligand-binding ability than the Ru(p-cym) analogs; (ii) the formation constants of the [Ru(p-cym)(8HQH-1)(N)]^+ complexes are similar or somewhat higher than those of the RhCp* analogs; (iii) a stability trend for the monodentate ligand: mim > bim > Py (iv) and the bidentate ligand: 8HQH-1 > phen ≥ en can be seen.

## Cc1c(C)c(C)[c-](C)c1C.[Cl-].[Cl-].[Rh+3].c1cnc2c(c1)ccc1cccnc12 [[RhCp*(phen)Cl]Cl]
[1]; pH 6
  pIC50: < 4.00
[1]; pH 7
  pIC50: < 4.00
[2]; pH 6
  pIC50: < 4.00
[2]; pH 7
  pIC50: < 4.00
[3]; E. coli sensitive, pH 5, after one day, read-out: MIC
  MIC: > 100 µM
[3]; E. coli sensitive, pH 6, after one day, read-out: MIC
  MIC: >100 µM
[3]; E. coli sensitive, pH 7, after one day, read-out: MIC
  MIC: >100 µM
[3]; E. coli sensitive, pH 8, after one day, read-out: MIC
  MIC: > 100 µM
[3]; any of the bacterial strains, E. coli, read-out: MIC (no antibacterial effect)
  MIC: > 100 µM
[4]; E. coli resistant, pH 5, after one day, read-out: MIC
  MIC: > 100 µM
[4]; E. coli resistant, pH 6, after one day, read-out: MIC
  MIC: >100 µM
[4]; E. coli resistant, pH 7, after one day, read-out: MIC
  MIC: >100 µM
[4]; E. coli resistant, pH 8, after one day, read-out: MIC
  MIC: > 100 µM
[4]; any of the bacterial strains, resistant E. coli, read-out: MIC (no antibacterial effect)
  MIC: > 100 µM
[5]; S. aureus sensitive, pH 7, after one day, read-out: MIC
  MIC: >100 µM
[5]; S. aureus sensitive, pH 8, after one day, read-out: MIC
  MIC: > 100 µM
[5]; any of the bacterial strains, S. aureus, read-out: MIC (no antibacterial effect)
  MIC: > 100 µM
[6]; any of the bacterial strains, read-out: MIC (no antibacterial effect)
  MIC: > 100 µM
[6]; pH 5, after one day, read-out: MIC
  MIC: > 100 µM
[6]; pH 6, after one day, read-out: MIC
  MIC: >100 µM
[6]; pH 7, after one day, read-out: MIC
  MIC: >100 µM
[6]; pH 8, after one day, read-out: MIC
  MIC: > 100 µM

## Cc1ccc(C(C)C)cc1.NCCN.[Ru+2].c1ccncc1 [[Ru(p-cym)(en)(Py)]^2+]
[7]
  Formation constant logK of mixed-ligand complex: < 1.5
  formation of the mixed-ligand complex: not detected

## Cc1ccc(C(C)C)cc1.Cn1ccnc1.NCCN.[Ru+2] [[Ru(p-cym)(en)(mim)]^2+]
[7]
  formation of the mixed-ligand complex: not detected

## Cc1ccc(C(C)C)cc1.Cn1ccnc1.[Ru+2].c1cnc2c(c1)ccc1cccnc12 [[Ru(p-cym)(phen)(mim)]^2+]
[7]
  formation of the mixed-ligand complex: not detected

## Cc1ccc(C(C)C)cc1.[Ru+][O]c1cccc2cccnc12.c1ccncc1 [[RuCym(8HQH-1)(H2O)]+ + Py]
[7]
  Formation constant logK of mixed-ligand complex: 1.6 ± 0.2

## Cc1ccc(C(C)C)cc1.[Ru+][O]c1cccc2cccnc12.c1ccc2[nH]cnc2c1 [[RuCym(8HQH-1)(H2O)]+ + bim]
[7]
  Formation constant logK of mixed-ligand complex: 2.9 ± 0.1

## Cc1ccc(C(C)C)cc1.NCCN.[Ru+2].c1ccc2[nH]cnc2c1 [[RuCym(en)(H2O)]2+ + bim]
[7]
  Formation constant logK of mixed-ligand complex: 3.5 ± 0.1
